Here are results for twelve compounds from the supplement of paper PMC7108870.

Test [1] concerns HEK293sieSTAT3(wt). Put plainly: drug sensitivity score (DSS), viability CellTiter-Glo (DSS (dimensionless)); higher = more growth inhibition; extreme values may be limits of the assay. Conditions: 72 h; STAT3 variant: wild type. The essentials: (§1)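 Compounds were acoustically pre-plated in 384-well plates at 5 concentrations spaced by 10-fold dilutions, and HEK293 cells overexpressing wild-type or mutant STAT3 and carrying a STAT3-dependent luciferase reporter were added at 100,000 cells/ml in 20 μl. After 72 hours at 37°C and 5% CO2, the plates were read on a PHERAstar FS for CellTox Green fluorescence (485/520 nm) and then CellTiter-Glo luminescence. A drug sensitivity score derived from dose-response curve area was calculated in Breeze from values normalised to negative and positive control wells.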
In general terms: In ATP-based viability assays light output follows the ATP content of the culture.

Test [2] concerns HEK293sieSTAT3(Y640F). The description is as above. Conditions: 72 h; STAT3 variant: Y640F (constitutively active). The essentials:
as §1

The test system of test [3] is HEK293sieSTAT3(wt). Put plainly: drug sensitivity score (DSS), cytotoxicity CellTox Green (DSS (dimensionless)); higher = more cytotoxic; extreme values may be limits of the assay. Conditions: 72 h; STAT3 variant: wild type. The essentials: as §1
In test [4] the test system is HEK293sieSTAT3(Y640F). The test is described as above. Conditions: 72 h; STAT3 variant: Y640F (constitutively active). The essentials: as §1

For the compound `CC[C@]1(O)C[C@H]2CN(CCc3c([nH]c4ccccc34)[C@@](C(=O)OC)(c3cc4c(cc3OC)N(C=O)[C@H]3[C@@](O)(C(=O)OC)[C@H](OC(C)=O)[C@]5(CC)C=CCN6CC[C@]43[C@@H]65)C2)C1` [Vincristine] (top concentration tested 1000 nM), the drug sensitivity score is 23.6 in test [1], 21.2 in test [2], 16.2 in test [3] and 6.72 in test [4].
With `CCC1=C[C@@H]2CN(C1)Cc1c([nH]c3ccccc13)[C@@](C(=O)OC)(c1cc3c(cc1OC)N(C)[C@H]1[C@@](O)(C(=O)OC)[C@H](OC(C)=O)[C@]4(CC)C=CCN5CC[C@]31[C@@H]54)C2` [Vinorelbine] (top concentration tested 10000 nM), the drug sensitivity score in test [1] is 34; in test [2], 30.6; in test [3] it was 19.2; in test [4] it was 5.27.
As for `CS(=O)(=O)c1ccc(C(=O)Nc2ccc(Cl)c(-c3ccccn3)c2)c(Cl)c1` [Vismodegib] (top concentration tested 10000 nM), the drug sensitivity score in test [1] came out at 0.09; in test [2], 0.91; in test [3], 0.14; in test [4], 0.
On the same counts, the results for `CC[C@@H]1C(=O)N(C)c2cnc(Nc3ccc(C(=O)N[C@H]4CC[C@H](N5CCN(CC6CC6)CC5)CC4)cc3OC)nc2N1C(C)C` [Volasertib] (top concentration tested 1000 nM) are 21.7, 22.1, 21.4 and 12.6.
The like results for `O=C(CCCCCCC(=O)Nc1ccccc1)NO` [Vorinostat] (top concentration tested 10000 nM) were, in that order, 9.87, 10.6, 4.68 and 2.86.
The like results for `CCn1c(=O)c(-c2cc[nH]n2)cc2c(C)nc(N)nc21` [Voxtalisib] (top concentration tested 10000 nM) were, in that order, 9.9, 8.35, 3.54 and 0.
Take `Oc1nc(-c2ccc(C(F)(F)F)cc2)nc2c1CSCC2` [XAV-939] (top concentration tested 10000 nM): the drug sensitivity score was determined as 1.46 in test [1], 0.17 in test [2], 0 in test [3] and 0 in test [4].
For the compound `O=C(Nc1ccc(-c2ccnc(Nc3ccc(N4CCOCC4)cc3)n2)cc1)C1CCCN1` (stereo not drawn) [XL019] (top concentration tested 10000 nM), the drug sensitivity score in test [1] turned out to be 2.07; in test [2], 1.98; in test [3] it was 0; in test [4], 0.
For `COc1cc2c(Nc3ccc(Cl)c(Cl)c3F)ncnc2cc1OC[C@@H]1C[C@@H]2CN(C)C[C@@H]2C1` [XL-647] (top concentration tested 1000 nM), the drug sensitivity score is 0.88 in test [1], 1.72 in test [2], 0 in test [3] and 0 in test [4].
For `COCC[n+]1c2c(n(Cc3cnccn3)c1C)C(=O)c1ccccc1C2=O` [YM155] (top concentration tested 10000 nM), the drug sensitivity score amounted to 34.7 in test [1], 30.4 in test [2], 27.5 in test [3] and 12.8 in test [4].
Turning to `FC(F)c1nc2ccccc2n1-c1nc(N2CCOCC2)nc(N2CCOCC2)n1` [ZSTK474] (top concentration tested 10000 nM), the drug sensitivity score in test [1] turned out to be 16.6; in test [2] it was 12.8; in test [3], 6.5; in test [4] it was 0.
Turning to `c1ccc(Cn2c(-c3ccc(OC[C@H](C4CCNCC4)n4c(-c5ccccc5)nc5ccccc54)cc3)nc3ccccc32)cc1` [deltarasin] (top concentration tested 10000 nM), the drug sensitivity score in test [1] worked out at 8.74; in test [2], 7.04; in test [3], 8.33; in test [4], 7.78.
